Measurements reported in US20040209777A1, “Agents for improving the qualities of fruits/grains” (priority 2001, published 2004).
Like-named read-outs stand apart in the source and are kept apart here.

Assays:
Japanese pear “Kousui” [1] = test system: Japanese pear “Kousui”
Description: Regarding the sugar concentration of fruits, the sugar content (Brix) of the fruits harvested on August 24 of the year. The content of the individual sugar species was measured by selecting 10 fruits from each section to obtain fruit juices prepared by pressing the fruits, filtering each juice with a membrane filter having a 0.45 μm diameter, and then, quantifying the sugar content for every sugar species by HPLC (Column: “Shim-pack SCR-101C”, Column temperature: 80° C., Solvent: water (1 mL/min); and Detector: RI).

Japanese pear “Kousui” [2] = settings: observed on February 5
Description: The flower bud differentiation rate was surveyed by observing winter buds with the unaided eye for each of long fruiting branches and short fruiting branches for every section on February 5 of the next year. The flower bud differentiation rate was calculated as a proportion of the flower bud number (mixed flower buds) to the total winter bud number, provided that the last-year branch was regarded as 1 unit, to which branch a long fruiting branch or a short fruiting branch attached.

Japanese pear “Kousui” [3] = settings: average Score (+3 to −3) of sprayed product, non-sprayed product = Score 0
Description: In this connection, the scores of the sprayed product shown in Table 5 were counted by the following way. I.e., this was carried out in a paired comparison method where the “non-sprayed product” was assigned to Score 0 (control), and the “sprayed product” was scored by 7-class evaluation consisting of Scores +3, +2, +1, 0, −1, −2, and −3, employing a plurality of panels. Next, average values of the results of scoring the “sprayed product” by the plurality of panels were calculated and the average values were assigned to the Scores of the “sprayed product” in Table 5.

[4] = test system: adult grape tree (cultivar Cabernet sauvignon)
Description: The aqueous proline solution, which had been prepared by dissolving the high purity proline as described above into water to provide a 200 ppm concentration and adding 10 mL of “ATLOX BI” (wetting agent) thereto, was sprayed on the adult grape tree (cultivar Cabernet sauvignon) with an interval of 15 days during the period from the end of June to the middle of September in a year, which is the véraison period as the fruit growing period.
The sprayed amount was a certain amount to allow the solution to drop down from the leaf surfaces. The control section was assigned to another non-sprayed adult tree. Both the test section and the control section were harvested on October 25 in that year to analyze sweetness and a red-colored state. Sweetness was evaluated in terms of the sugar content (Brix) of a juice prepared by mixing and pulverizing seed-removed fruits and pericarps. Colored state (red) was evaluated by measuring a light absorbance of the juice at 522 nm.
According to the market evaluation for a grape cultivar for red wine and a red grape cultivar such as Kyohou, the stronger the coloration (red) of the pericarp is, the better the quality is.

Japanese pear “Kousui” [5] = test system: Japanese pear “Kousui”; remark: listed apart in the source
[6] = pear fruit juice, harvested on August 24, HPLC, n = 10
[7] = grape juice, harvested October 25, 200 ppm proline sprayed every 15 days

O=C(O)[C@@H]1CCCN1 [proline, L-proline]
Fructose content in the fruits (Japanese pear “Kousui” [1]; [6]): 56.74 mg/mL
Glucose content in the fruits (Japanese pear “Kousui” [1]; [6]): 18.67 mg/mL
Sorbitol content in the fruits (Japanese pear “Kousui” [1]; [6]): 28.83 mg/mL
Sucrose content in the fruits (Japanese pear “Kousui” [1]; [6]): 62.09 mg/mL
Total individual sugar contents in the fruits (Japanese pear “Kousui” [1]; [6]): 166.12 mg/mL
Sugar content (Brix) (Japanese pear “Kousui” [1]; pear fruits harvested on August 24, 200 ppm proline sprayed): 11.7 ± 0.1 Brix
pericarp color (Japanese pear “Kousui” [1]; pear fruits harvested on August 24, proline-treated section): somewhat red pericarp
flower bud differentiation rate (Japanese pear “Kousui” [2]; long fruiting branch, Total): 39.83%
flower bud differentiation rate (Japanese pear “Kousui” [2]; long fruiting branch, Tree No. 1): 40.60%
flower bud differentiation rate (Japanese pear “Kousui” [2]; long fruiting branch, Tree No. 2): 39.05%
flower bud differentiation rate (Japanese pear “Kousui” [2]; short fruiting branch, Total): 39.38%
flower bud differentiation rate (Japanese pear “Kousui” [2]; short fruiting branch, Tree No. 1): 40.83%
flower bud differentiation rate (Japanese pear “Kousui” [2]; short fruiting branch, Tree No. 2): 37.93%
Apparent color (Japanese pear “Kousui” [3]): 0.06
Comprehensive evaluation (Japanese pear “Kousui” [3]): 0.74
Hardness (Japanese pear “Kousui” [3]): −0.13
Juiciness (Japanese pear “Kousui” [3]): 0.02
Preferableness of sourness (Japanese pear “Kousui” [3]): −0.06
Preferableness of sweetness (Japanese pear “Kousui” [3]): 0.43
Preferableness of whole aroma (Japanese pear “Kousui” [3]): 0.64
Preferableness of whole feeling upon eating (Japanese pear “Kousui” [3]): 0.31
Preferableness of whole flavor (Japanese pear “Kousui” [3]): 0.50
Preferableness of whole taste (Japanese pear “Kousui” [3]): 0.61
Strength of sourness (Japanese pear “Kousui” [3]): −0.19
Strength of sweetness (Japanese pear “Kousui” [3]): 0.95
Strength of whole aroma (Japanese pear “Kousui” [3]): 0.26
Strength of whole flavor (Japanese pear “Kousui” [3]): 0.57
Strength of whole taste (Japanese pear “Kousui” [3]): 0.79
Tongue feeling (Japanese pear “Kousui” [3]): −0.19
Unripe flavor (Japanese pear “Kousui” [3]): −0.41
Colored degree (OD at 522 nm) [4, 7]: 0.14 OD at 522 nm
Sugar content (Brix) [4, 7]: 20.3 Brix
increment of anthocyanin content in the juice ([4]; grape juice, proline-sprayed section vs control section): about 20%
difference in the size of fruits ([4]; grape, proline-sprayed section vs control section): No difference
drug damage caused by spraying (Japanese pear “Kousui” [5]; Japanese pear “Kousui”, 200 ppm proline sprayed on leaves): any drug damage caused by spraying has not been observed
Harvested number of pears (Japanese pear “Kousui” [5]; Total of all fruit sizes, Total of harvest days, 200 ppm proline sprayed on leaves): 638
Harvested number of pears (Japanese pear “Kousui” [5]; Total of all fruit sizes, harvest day August 18, 200 ppm proline sprayed on leaves): 130
Harvested number of pears (Japanese pear “Kousui” [5]; Total of all fruit sizes, harvest day August 21, 200 ppm proline sprayed on leaves): 185
Harvested number of pears (Japanese pear “Kousui” [5]; Total of all fruit sizes, harvest day August 24, 200 ppm proline sprayed on leaves): 323
Harvested number of pears (Japanese pear “Kousui” [5]; fruit size 2L, Total of harvest days, 200 ppm proline sprayed on leaves): 115
Harvested number of pears (Japanese pear “Kousui” [5]; fruit size 2L, harvest day August 18, 200 ppm proline sprayed on leaves): 33
Harvested number of pears (Japanese pear “Kousui” [5]; fruit size 2L, harvest day August 21, 200 ppm proline sprayed on leaves): 46
Harvested number of pears (Japanese pear “Kousui” [5]; fruit size 2L, harvest day August 24, 200 ppm proline sprayed on leaves): 36
Harvested number of pears (Japanese pear “Kousui” [5]; fruit size 3L, Total of harvest days, 200 ppm proline sprayed on leaves): 233
Harvested number of pears (Japanese pear “Kousui” [5]; fruit size 3L, harvest day August 18, 200 ppm proline sprayed on leaves): 46
Harvested number of pears (Japanese pear “Kousui” [5]; fruit size 3L, harvest day August 21, 200 ppm proline sprayed on leaves): 64
Harvested number of pears (Japanese pear “Kousui” [5]; fruit size 3L, harvest day August 24, 200 ppm proline sprayed on leaves): 123
Harvested number of pears (Japanese pear “Kousui” [5]; fruit size 4L, Total of harvest days, 200 ppm proline sprayed on leaves): 160
Harvested number of pears (Japanese pear “Kousui” [5]; fruit size 4L, harvest day August 18, 200 ppm proline sprayed on leaves): 25
Harvested number of pears (Japanese pear “Kousui” [5]; fruit size 4L, harvest day August 21, 200 ppm proline sprayed on leaves): 32
Harvested number of pears (Japanese pear “Kousui” [5]; fruit size 4L, harvest day August 24, 200 ppm proline sprayed on leaves): 103
Harvested number of pears (Japanese pear “Kousui” [5]; fruit size 5L, Total of harvest days, 200 ppm proline sprayed on leaves): 31
Harvested number of pears (Japanese pear “Kousui” [5]; fruit size 5L, harvest day August 18, 200 ppm proline sprayed on leaves): 0
Harvested number of pears (Japanese pear “Kousui” [5]; fruit size 5L, harvest day August 21, 200 ppm proline sprayed on leaves): 4
Harvested number of pears (Japanese pear “Kousui” [5]; fruit size 5L, harvest day August 24, 200 ppm proline sprayed on leaves): 27
Harvested number of pears (Japanese pear “Kousui” [5]; fruit size L, Total of harvest days, 200 ppm proline sprayed on leaves): 55
Harvested number of pears (Japanese pear “Kousui” [5]; fruit size L, harvest day August 18, 200 ppm proline sprayed on leaves): 19
Harvested number of pears (Japanese pear “Kousui” [5]; fruit size L, harvest day August 21, 200 ppm proline sprayed on leaves): 18
Harvested number of pears (Japanese pear “Kousui” [5]; fruit size L, harvest day August 24, 200 ppm proline sprayed on leaves): 18
Harvested number of pears (Japanese pear “Kousui” [5]; fruit size M, Total of harvest days, 200 ppm proline sprayed on leaves): 20
Harvested number of pears (Japanese pear “Kousui” [5]; fruit size M, harvest day August 18, 200 ppm proline sprayed on leaves): 0
Harvested number of pears (Japanese pear “Kousui” [5]; fruit size M, harvest day August 21, 200 ppm proline sprayed on leaves): 11
Harvested number of pears (Japanese pear “Kousui” [5]; fruit size M, harvest day August 24, 200 ppm proline sprayed on leaves): 9
Harvested number of pears (Japanese pear “Kousui” [5]; fruit size S, Total of harvest days, 200 ppm proline sprayed on leaves): 24
Harvested number of pears (Japanese pear “Kousui” [5]; fruit size S, harvest day August 18, 200 ppm proline sprayed on leaves): 7
Harvested number of pears (Japanese pear “Kousui” [5]; fruit size S, harvest day August 21, 200 ppm proline sprayed on leaves): 10
Harvested number of pears (Japanese pear “Kousui” [5]; fruit size S, harvest day August 24, 200 ppm proline sprayed on leaves): 7
ripening of fruits (fruit number for every harvest day) (Japanese pear “Kousui” [5]; proline-treated section vs control section): fruits ripened earlier as a tendency
